Laboratory results: ChEMBL document CHEMBL5465560, “Selectivity Literature for EUbOPEN Chemogenomic Library” (2024)
pIC50: −log10 of the molar value. One block for each molecule: values may come before it.

How the values were obtained:
[1] = target: T1, Histone-arginine methyltransferase CARM1 (Homo sapiens) (UniProt Q86X55); conditions: KMS-11, at 3 µM
T1 sequence (whole entry): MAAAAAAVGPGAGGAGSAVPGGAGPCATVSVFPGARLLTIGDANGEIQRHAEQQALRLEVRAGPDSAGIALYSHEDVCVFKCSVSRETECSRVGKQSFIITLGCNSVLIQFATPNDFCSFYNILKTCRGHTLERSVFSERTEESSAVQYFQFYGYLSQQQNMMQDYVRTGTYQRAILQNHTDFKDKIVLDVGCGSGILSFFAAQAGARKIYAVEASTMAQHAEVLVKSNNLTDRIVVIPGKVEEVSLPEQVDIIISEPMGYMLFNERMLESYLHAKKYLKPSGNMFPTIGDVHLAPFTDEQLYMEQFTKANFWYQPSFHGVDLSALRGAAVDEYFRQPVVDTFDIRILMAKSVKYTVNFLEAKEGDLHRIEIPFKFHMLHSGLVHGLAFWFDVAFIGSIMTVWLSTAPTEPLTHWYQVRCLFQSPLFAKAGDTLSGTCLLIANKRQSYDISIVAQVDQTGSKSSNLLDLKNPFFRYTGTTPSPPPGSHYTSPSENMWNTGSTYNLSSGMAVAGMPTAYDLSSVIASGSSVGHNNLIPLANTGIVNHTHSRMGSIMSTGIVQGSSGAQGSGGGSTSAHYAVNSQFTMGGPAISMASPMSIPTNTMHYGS

[2] = target: Alpha-2A adrenergic receptor (Homo sapiens, UniProt P08913); assay: Selectivity interaction (Alpha2A calcium flux assay ) EUB0000877a ADRA2A
[3] = target: T2, Serine/threonine-protein kinase LATS1 (Homo sapiens) (UniProt O95835); assay: Selectivity interaction (LanthaScreen Eu Kinase Binding Assay) EUB0001632a LATS1; conditions: at 10 µM
T2 sequence (whole entry): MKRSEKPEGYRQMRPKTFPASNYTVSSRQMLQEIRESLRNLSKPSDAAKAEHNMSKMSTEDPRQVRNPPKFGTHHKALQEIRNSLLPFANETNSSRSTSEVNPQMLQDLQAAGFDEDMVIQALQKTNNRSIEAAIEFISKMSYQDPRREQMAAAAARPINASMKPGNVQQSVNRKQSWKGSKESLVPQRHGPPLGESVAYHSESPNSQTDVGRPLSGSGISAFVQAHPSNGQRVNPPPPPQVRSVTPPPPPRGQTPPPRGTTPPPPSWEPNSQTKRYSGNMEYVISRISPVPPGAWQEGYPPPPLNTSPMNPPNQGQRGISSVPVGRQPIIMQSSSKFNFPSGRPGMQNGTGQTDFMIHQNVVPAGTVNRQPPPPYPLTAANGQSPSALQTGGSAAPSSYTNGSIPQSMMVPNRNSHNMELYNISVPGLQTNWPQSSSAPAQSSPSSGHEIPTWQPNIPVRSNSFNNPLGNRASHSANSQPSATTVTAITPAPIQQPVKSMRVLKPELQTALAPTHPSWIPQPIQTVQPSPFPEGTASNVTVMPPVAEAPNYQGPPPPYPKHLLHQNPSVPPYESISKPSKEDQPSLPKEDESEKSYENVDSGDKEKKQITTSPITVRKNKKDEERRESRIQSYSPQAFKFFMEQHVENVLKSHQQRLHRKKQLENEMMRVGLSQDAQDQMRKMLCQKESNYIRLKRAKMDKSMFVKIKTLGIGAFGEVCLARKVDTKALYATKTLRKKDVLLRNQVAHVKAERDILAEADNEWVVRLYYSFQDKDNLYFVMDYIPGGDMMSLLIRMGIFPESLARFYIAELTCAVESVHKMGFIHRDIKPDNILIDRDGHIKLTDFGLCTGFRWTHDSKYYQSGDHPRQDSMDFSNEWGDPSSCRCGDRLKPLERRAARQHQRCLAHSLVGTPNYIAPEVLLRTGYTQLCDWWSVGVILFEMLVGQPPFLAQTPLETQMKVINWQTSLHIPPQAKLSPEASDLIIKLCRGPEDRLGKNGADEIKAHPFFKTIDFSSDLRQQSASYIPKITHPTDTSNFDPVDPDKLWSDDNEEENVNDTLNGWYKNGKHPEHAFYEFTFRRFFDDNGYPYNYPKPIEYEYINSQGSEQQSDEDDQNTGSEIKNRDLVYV

[4] = target: T3, Dual specificity mitogen-activated protein kinase kinase 6 (Homo sapiens) (UniProt P52564); assay: Selectivity interaction (Kinase panel (Z-LYTE Assay)) EUB0001632a MAP2K6; conditions: at 10 µM
T3 sequence (whole entry): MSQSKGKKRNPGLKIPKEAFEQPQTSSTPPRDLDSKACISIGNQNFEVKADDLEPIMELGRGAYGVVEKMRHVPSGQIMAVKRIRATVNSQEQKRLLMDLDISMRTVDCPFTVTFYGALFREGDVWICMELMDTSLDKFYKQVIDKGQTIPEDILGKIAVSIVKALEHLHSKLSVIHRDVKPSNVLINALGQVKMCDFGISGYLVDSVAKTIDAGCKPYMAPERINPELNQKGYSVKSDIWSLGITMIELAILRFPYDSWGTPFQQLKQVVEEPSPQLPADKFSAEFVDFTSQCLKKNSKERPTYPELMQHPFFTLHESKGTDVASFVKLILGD

[5] = target: Serine/threonine-protein kinase Chk2 (Homo sapiens) (UniProt O96017); assay: Selectivity interaction (KinomeScan (DiscoverX)) EUB0001079a CHEK2; conditions: at 1 µM
Chain of Serine/threonine-protein kinase Chk2 (Homo sapiens) (O96017 whole entry): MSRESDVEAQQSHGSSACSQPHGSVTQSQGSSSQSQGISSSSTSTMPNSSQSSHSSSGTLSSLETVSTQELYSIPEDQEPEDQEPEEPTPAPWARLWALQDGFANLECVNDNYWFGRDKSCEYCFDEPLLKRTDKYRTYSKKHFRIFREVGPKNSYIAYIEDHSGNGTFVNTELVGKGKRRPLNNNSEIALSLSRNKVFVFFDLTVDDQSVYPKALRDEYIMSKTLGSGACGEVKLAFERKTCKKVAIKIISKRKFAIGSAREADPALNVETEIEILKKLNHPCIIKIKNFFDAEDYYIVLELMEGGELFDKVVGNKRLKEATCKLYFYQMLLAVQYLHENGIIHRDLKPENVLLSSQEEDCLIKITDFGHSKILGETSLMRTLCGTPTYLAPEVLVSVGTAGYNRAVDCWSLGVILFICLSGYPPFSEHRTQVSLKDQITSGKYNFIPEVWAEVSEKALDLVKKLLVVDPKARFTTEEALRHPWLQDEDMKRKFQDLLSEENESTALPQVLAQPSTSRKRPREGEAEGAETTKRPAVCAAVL

Chain of Alpha-2A adrenergic receptor (P08913 whole entry): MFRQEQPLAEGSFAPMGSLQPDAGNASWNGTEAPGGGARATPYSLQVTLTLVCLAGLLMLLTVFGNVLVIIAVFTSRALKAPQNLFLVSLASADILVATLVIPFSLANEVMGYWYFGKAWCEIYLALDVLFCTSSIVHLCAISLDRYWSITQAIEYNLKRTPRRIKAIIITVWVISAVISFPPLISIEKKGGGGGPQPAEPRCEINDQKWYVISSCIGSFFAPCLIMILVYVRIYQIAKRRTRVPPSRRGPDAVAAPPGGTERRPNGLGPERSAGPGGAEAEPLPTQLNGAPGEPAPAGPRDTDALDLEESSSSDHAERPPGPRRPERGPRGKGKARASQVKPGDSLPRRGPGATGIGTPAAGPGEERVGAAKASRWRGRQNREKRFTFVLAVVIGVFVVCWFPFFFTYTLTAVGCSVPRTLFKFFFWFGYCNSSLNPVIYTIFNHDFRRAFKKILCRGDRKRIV

- % of growth rate [1]: -17.2%
SMILES: CNCCN1CCC(c2cc(CN(C)C(=O)c3cccc(Oc4ccccc4)c3)ccn2)CC1

- pIC50 [2]: < 4.52
SMILES: CCC(=O)N1CC[C@H](Nc2ncnc3c2CN(c2cnc(OC)c(C(F)(F)F)c2)CC3)C1 [LENIOLISIB]

- % of inhibition [3]: -63.1%
- % of control [4]: 5.11%
SMILES: Cn1cc(-n2cnc3c(NCc4nc5cc(Cl)c(Cl)cc5[nH]4)nc(N4CCOCC4)nc32)cn1

SMILES: Nc1cnc(N2CCc3cc(S(=O)(=O)Nc4c(F)cc(Cl)cc4F)cc(N4CCCC4=O)c32)nc1 [TP-020n]
- % of control [5]: 92%
